# Measurements reported in US20150307938A1, “METHOD TO IDENTIFY A NOVEL CLASS OF IMMUNOLOGIC ADJUVANTS” (Lancell, L.L.C., priority 2011, published 2015).
# Where “and” joins values, the source holds several entries; their conditions need not be identical. Equal entries are not always repeated.
# Test system: skin
# Test: Affymetrix microarray of skin, DBP-4 hr and analogs vs. untreated; gene selection by log-2 fold change, Wilcoxon, Kendall tau (Tables 8, 9)
# Type: in vivo, mouse
# Conditions: mouse, in vivo
compound,measurement,value
"CCCCOC(=O)c1ccccc1C(=O)OCCCC [DBP, dibutylphthalate]",AY026312 NM_133359_at ≧2-Fold change,No
same,Abcc3 (NM_029600_at) ≧2-Fold change,Yes
same,Acot5 (NM_145444_at) ≧2-Fold change,Yes
same,Actn2 NM_033268_at ≧2-Fold change,No
same,Adamts4 (NM_172845_at) ≧2-Fold change,Yes
same,Akap12 (NM_031185_at) ≧2-Fold change,Yes
same,Akr1c14 NM_134072_at ≧2-Fold change,No
same,Aldh7a1 NM_001127338_at ≧2-Fold change,No
same,Angptl4 (NM_020581_at) ≧2-Fold change,Yes
same,Aox4 NM_023631_at ≧2-Fold change,No
same,Arc (NM_018790_at) ≧2-Fold change,Yes
same,Arid5a (NM_145996_at) ≧2-Fold change,Yes
same,Arid5a (NR_033310_at) ≧2-Fold change,Yes
same,Asb5 NM_029569_at ≧2-Fold change,No
same,Atp2a2 NM_001110140_at ≧2-Fold change,No
same,Atp13a3 NM_001128094_at ≧2-Fold change,No
same,Atp13a3 NM_001128096_at ≧2-Fold change,No
same,Bcar3 (NM_013867_at) ≧2-Fold change,Yes
same,Bcl3 (NM_033601_at) ≧2-Fold change,Yes
same,Bcr NM_001081412_at ≧2-Fold change,No
same,Bhlhe40 (NM_011498_at) ≧2-Fold change,Yes
same,Calcb (NM_054084_at) ≧2-Fold change,Yes
same,Camk2g NM_001039138_at ≧2-Fold change,No
same,Camk2g NM_001039139_at ≧2-Fold change,No
same,Ccl1 (NM_011329_at) ≧2-Fold change,Yes
same,Ccl2 (NM_011333_at) ≧2-Fold change,Yes
same,Ccl3 (NM_011337_at) ≧2-Fold change,Yes
same,Ccl7 (NM_013654_at) ≧2-Fold change,Yes
same,Ccl8 NM_021443_at ≧2-Fold change,No
same,Ccl9 (NM_011338_at) ≧2-Fold change,Yes
same,Ccl12 (NM_011331_at) ≧2-Fold change,Yes
same,Ccl17 (NM_011332_at) ≧2-Fold change,Yes
same,Ccl20 (NM_016960_at) ≧2-Fold change,Yes
same,Ccl24 NM_019577_at ≧2-Fold change,No
same,Cd86 (NM_019388_at) ≧2-Fold change,Yes
same,Cd207 (NM_144943_at) ≧2-Fold change,Yes
same,Cd209d NM_130904_at ≧2-Fold change,No
same,Ckmt2 NM_198415_at ≧2-Fold change,No
same,Cldn8 NM_018778_at ≧2-Fold change,No
same,Clec4e (NM_019948_at) ≧2-Fold change,Yes
same,Clec4n NM_020001_at ≧2-Fold change,No
same,Clec7a (NM_020008_at) ≧2-Fold change,Yes
same,Clec4d (NM_010819_at) ≧2-Fold change,Yes
same,Clic4 (NM_013885_at) ≧2-Fold change,Yes
same,Cmya5 NM_023821_at ≧2-Fold change,No
same,Comp NM_016685_at ≧2-Fold change,No
same,Corin NM_016869_at ≧2-Fold change,No
same,Crem (NM_013498_at) ≧2-Fold change,Yes
same,Crispld1 NM_031402_at ≧2-Fold change,No
same,Cxcl10 NM_021274_at ≧2-Fold change,No
same,Cxcl16 (NM_023158_at) ≧2-Fold change,Yes
same,Cxcr6 NM_030712_at ≧2-Fold change,No
same,Cyr61 (NM_010516_at) ≧2-Fold change,Yes
same,Cyth1 NM_001112699_at ≧2-Fold change,No
same,Cyth1 NM_001112700_at ≧2-Fold change,No
same,Cytip (NM_139200_at) ≧2-Fold change,Yes
same,DBP LogFold-Change Versus-Untreated: 1600029D21Rik,1.52
same,DBP LogFold-Change Versus-Untreated: 1810055G02Rik,0.89
same,DBP LogFold-Change Versus-Untreated: 5730408K05Rik,0.91
same,DBP LogFold-Change Versus-Untreated: 1810011010Rik,1.53
same,DBP LogFold-Change Versus-Untreated: Abcc3,1.09
same,DBP LogFold-Change Versus-Untreated: Adam8,1.94
same,DBP LogFold-Change Versus-Untreated: Adamts4,1.41
same,DBP LogFold-Change Versus-Untreated: Angptl4,2.61
same,DBP LogFold-Change Versus-Untreated: Aqp3,0.89
same,DBP LogFold-Change Versus-Untreated: Arc,1.90
same,DBP LogFold-Change Versus-Untreated: Arid5a,1.49
same,DBP LogFold-Change Versus-Untreated: Bcar3,1.08
same,DBP LogFold-Change Versus-Untreated: Bcl3,2.56
same,DBP LogFold-Change Versus-Untreated: Bhlhe40,1.26
same,DBP LogFold-Change Versus-Untreated: Birc3,1.02
same,DBP LogFold-Change Versus-Untreated: Btg2,1.56
same,DBP LogFold-Change Versus-Untreated: Ccl2,3.23
same,DBP LogFold-Change Versus-Untreated: Ccl7,3.11
same,DBP LogFold-Change Versus-Untreated: Ccl12,3.10
same,DBP LogFold-Change Versus-Untreated: Ccl20,5.93
same,DBP LogFold-Change Versus-Untreated: Ccrn4l,1.75
same,DBP LogFold-Change Versus-Untreated: Cd44,1.31
same,DBP LogFold-Change Versus-Untreated: Cd86,1.73
same,DBP LogFold-Change Versus-Untreated: Cd207,1.42
same,DBP LogFold-Change Versus-Untreated: Cebpd,1.58
same,DBP LogFold-Change Versus-Untreated: Ch25h,1.91
same,DBP LogFold-Change Versus-Untreated: Cirh1a,0.79
same,DBP LogFold-Change Versus-Untreated: Cish,1.12
same,DBP LogFold-Change Versus-Untreated: Clec7a,2.09
same,DBP LogFold-Change Versus-Untreated: Clic4,1.12
same,DBP LogFold-Change Versus-Untreated: Coro2a,0.88
same,DBP LogFold-Change Versus-Untreated: Crem,1.29 and 1.23
same,DBP LogFold-Change Versus-Untreated: Csf2rb,1.11
